Reference: publication PMC9130766 (Frontiers in Pharmacology, 2022)
Entries after “also recorded” stand apart in the source; their conditions may differ. Like-named read-outs stand apart in the source and are kept apart here.

Assays:
[1] = biological target: T1, bacterial neuraminidase (BNA) (Clostridium perfringens, UniProt P10481); assay: biochemical; format: biochemical, C. perfrigens
[2] = biological target: T1, bacterial neuraminidase (BNA); assay: biochemical; format: biochemical, C. perfrigens; remark: listed apart in the source
[3] = biological target: T1, bacterial neuraminidase (BNA); assay: biochemical; format: binding, C. perfrigens
[4] = biological target: T1, bacterial neuraminidase (BNA); format: biochemical, C. perfrigens
E. coli biofilm = assay: Antibiofilm assay (crystal violet staining); format: cell-based; conditions: Escherichia coli, 24 h, 37°C, read-out: concentration giving 50% inhibition of E. coli biofilm production
Experimental: A 96-well microtiter plate (polystyrene) was used to measure the anti-biofilm activity as described previously ([Mohanta et al., 2020]). First, 180 μl of DNB and 10 μl of the test pathogens (OD = 1.0, 600 nm) were added to individual wells. Then, 10 μl solutions of ugonin J with different concentrations was added to each well and the contents of each well were mixed thoroughly. The prepared plate was then incubated for 24 h in a static condition at 37°C. After incubation, the supernatant in the wells in the plate was discarded and the residue washed with phosphate buffered saline (pH 7.2) to remove the free-floating non-adherent cells from the wells in the plate. The plate was then air-dried for about 45 min before the bacteria in the wells were fixed with 2% (w/v) sodium acetate. This was followed by flooding the wells with crystal violet stain (0.1%, w/v) and incubation in the dark for 30 min. After this, the wells in the plate were washed with sterile deionized water to remove all dye and allowed to dry. After drying, each well in the plate was filled with 200 μl of ethanol (95%, v/v) and the absorbance of this solution was measured at 620 nm using the SpectraMax M3 Multi-Mode Microplate Reader. All assays were conducted in triplicate and the mean ± standard deviation was calculated. […]

E. coli = assay: Cell growth of E. coli (OD 600 nm); format: cell-based, Escherichia coli; conditions: up to a concentration of 296 µM, compared to the control
Experimental: Escherichia coli was used in the study. All experiments were conducted in Difco™ Nutrient Broth (DNB) medium at 37°C. The E. coli was removed from glycerol stock at −80 C and transferred to the DNB plate. Next, in a 250 ml flask, a fresh single colony was inoculated into DNB (25 ml) medium and cultured at 37 C with 250 rpm for 24 h. Using the SpectraMaxM3 Multi-Mode Microplate Reader cell growth was found in the presence of different concentrations of compounds at optical densities of 600 nm. All experiments were conducted with at least three independent cultures ([Cho et al., 2013]).
Bacterial biofilms are a serious health concern owing to their abilities to tolerate antibiotics, host defense systems, and other external stresses ([Sharma et al., 2019]). It is generally accepted that neuraminidase participates in biofilm production together with quorum sensing. […] The crystal violet staining method was used for the detection of biofilm production. To investigate biofilm inhibition, E. coli was cultured overnight with or without inhibitor 1 in a 96-well plate.

[5] = pH 5.0, read-out: IC50, inhibition of bacterial neuraminidase (BNA)
[6] = IC50, inhibition of bacterial neuraminidase (BNA)

T1 sequence (P10481 whole entry, looked up): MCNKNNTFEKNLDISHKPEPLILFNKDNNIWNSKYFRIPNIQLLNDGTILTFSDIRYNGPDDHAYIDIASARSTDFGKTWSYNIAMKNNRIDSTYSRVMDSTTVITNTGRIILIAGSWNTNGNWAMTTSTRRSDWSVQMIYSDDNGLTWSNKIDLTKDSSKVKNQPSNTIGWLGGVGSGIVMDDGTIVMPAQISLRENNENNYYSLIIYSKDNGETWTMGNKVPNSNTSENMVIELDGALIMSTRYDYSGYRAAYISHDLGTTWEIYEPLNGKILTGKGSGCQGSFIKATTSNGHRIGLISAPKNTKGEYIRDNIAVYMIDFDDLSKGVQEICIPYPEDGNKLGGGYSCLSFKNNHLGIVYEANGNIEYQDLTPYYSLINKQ

SMILES	IC50 [1, 5]	Ki [2]	Kinetic mode [2]	K SV (Stern-Volmer quenching constant) [3]	Kd [3]	n (number of binding sites) [3]	fold greater BNA inhibitive ability than parent (mother) compound [1]	reversibility of BNA inhibition [2]	k 5 [4]	k 6 [4]	fluorescence (FS) reduction of BNA [3]	IC50 (E. coli biofilm)	growth inhibition of E. coli (E. coli)	IC50 [1, 6]
CC1=CCCC(C)(C)C1Cc1c(O)c(O)cc2oc3c(=O)c4c(O)cc(O)cc4oc3c12 (centres unmarked) [Compound 4, ugonin M]	150 nM	120 nM	Noncompetitive (0.12)	810000 L/mol	1180 nM	1.13	–	–	–	–	–	–	–	–
C=C1CCCC(C)(C)C1Cc1c(O)cc2c(c1O)C(=O)CC(c1ccc(O)c(O)c1)O2 (centres unmarked) [Compound 2, 2-(3,4-dihydroxyphenyl)-6-[(2,2-dimethyl-6 methylenecyclohexyl)methyl]-5,7-dihydroxy-chroman-4-one]	70 nM	60 nM	Noncompetitive (0.06)	2.53e+06 L/mol	746 nM	1.01	250 fold	–	–	–	–	–	–	–
C=C1CCCC(C)(C)[C@@H]1Cc1c(O)cc2oc(-c3ccc(O)c(O)c3)cc(=O)c2c1O [Compound 1, ugonin J]	50 nM	–	noncompetitive inhibitor; also recorded: Noncompetitive (0.05)	4.77e+06 L/mol	282 nM	1.30	–	reversible inhibitor	0.0103 min⁻¹	0.0486 min⁻¹	complete FS reduction	18000 nM	no growth inhibition	–
CC1(C)CCC[C@@]2(C)Oc3c(c(O)cc4oc(-c5ccc(O)c(O)c5)cc(=O)c34)C[C@@H]12 [Compound 5, ugonin S]	280 nM	250 nM	Noncompetitive (0.25)	70000 L/mol	16700 nM	1.24	–	–	–	–	–	–	–	140 nM
O=C1C[C@@H](c2ccc(O)c(O)c2)Oc2cc(O)cc(O)c21 [Eriodictyol, reference compound]	17800 nM	–	–	–	–	–	–	–	–	–	–	–	–	–
CC1(C)CCCC2(C)Oc3cc4oc(-c5ccc(O)c(O)c5)cc(=O)c4c(O)c3CC12 (centres unmarked) [Compound 6, ugonin U]	350 nM	290 nM	Noncompetitive (0.29)	50000 L/mol	33300 nM	1.44	–	–	–	–	–	–	–	–
O=c1cc(-c2ccc(O)c(O)c2)oc2cc(O)cc(O)c12 [Luteolin, reference compound]	4400 nM	–	–	–	–	–	–	–	–	–	did not undergo FS reduction	–	–	–
O=c1c(O)c(-c2ccc(O)c(O)c2)oc2cc(O)cc(O)c12 [Quercetin, reference compound]	–	–	–	–	–	–	–	–	–	–	–	–	–	20400 nM
